Data set [1] has as its system HT1080 (fibrosarcoma) cancer cells. Nature of the data set: MTS cytotoxicity assay on HT1080 cells. The data set is classed as cell-based.
Data set [2] can be described thus: SPR/EIS on tethered bilayer membrane (membrane permeation). The settings on record: POPC tBLM, Tris 20 mmol/L, 50 mmol/L NaCl, pH 7.4; steps of 0.1 μmol/L, 10 min each. The method, then:
Planar, tethered bilayer membranes (tBLM) supported on gold-coated surfaces (Fig. 2C) were made using 1-palmitoyl-2-oleoyl-sn-glycero-3-phosphocholine (POPC) to mimic cancer cell membranes[80],[81]. Combined, surface plasmon resonance (SPR)/electrical impedance spectroscopy (EIS) measurements (Fig. 3) were conducted by injecting the peptide in small increments while simultaneously observing (1) the kinetics associated with the peptides binding to the bilayer (SPR) and (2) the formation of peptide-lined defects that increase membrane permeation and conductance (EIS). […]
SPR/EIS measurements were carried out on tethered bilayer membrane (tBLM) using a custom-built instrument previously described (Fig. 2B)[123],[124]. […] Several POPC tBLMs were assembled on the gold surfaces using thiolated polyethyleneglycol linker molecules (1,2-di-O-myristyl-3-[ω-mercaptohexa(ethylene oxide) glycerol] (WC14) and β-mercaptoethanol (βME) at a ratio of 70:30 βME:WC14. The tBLMs were equilibrated in Tris buffer (20 mmol/L, 50 mmol/L NaCl, pH 7.4) and allowed to rest until both SPR and EIS signals were stable, before peptide injection. Two types of measurements were done. In the first type (Fig. 3), the peptide concentration was increased gradually, in steps of 0.1 μmol/L, and the SPR/EIS was monitored for 10 min after each addition. […]

Data set [3] is described as follows: Lipid oxidation, absorbance at 234 nm. The settings on record: SUVs 0.20 mg/mL, P/L = 1:10 (26 µmol/L), 4 mmol/L phosphate pH 7.8, 24 h exposure to air, triplicates. An excerpt: It has long been known that certain divalent metal ions, especially iron and copper, promote lipid peroxidation (oxidative deterioration of polyunsaturated fatty acids), a mechanism that has been strongly associated with cellular injury and death. Divalent transition-metal ions participate in Fenton-like chemical reactions produces ROS (e.g., hydroxyl radicals, superoxide) that can oxidize double bonds within the membrane. Here, to learn about the possible piscidin/Cu^2+-mediated oxidation of double bonds in lipid bilayers, we used absorbance and mass spectrometry to measure the formation of the oxidation products in small unilamellar vesicles (SUV) constituted of di-linoleoyl-sn-glycero-3-phosphocholine (DLPC) and POPG mixed in a 3:1 molar ratio and prepared at a concentration of 0.50 mg total lipid/mL. We first tested the ability of free Cu^2+ to oxidize the double bonds within the liposomes. Increasing amounts of Cu^2+ for a fixed amount of lipids (expressed as Cu/L, the molar ratio of Cu^2+ to total lipid) were mixed with the SUVs and the absorbance was measured at λ = 234 nm (Fig. 7A) (corresponding to λmax for the conjugated dienes that appear in lipid oxidation products)[92],[93]. Because molecular oxygen (O2) found in the atmosphere readily dissolves in the bilayer, no exogenous oxidant is needed to initiate the oxidation of the double bonds. […]

Data set [4] has as its system MDA-MB-231 (breast) cancer cells. It is filed as cell-based. As to conditions: for IC50: 24 h.
In data set [5] the test system is normal MRC-5 (lung) fibroblast cells. Also noted: dose or concentration left out as unconfirmed. As to conditions: at about; ref Lin et al.1; cited from earlier work. An excerpt:
(§1) Tested at up to 10 µ mol/L ...

Data set [6] has as its system HGF-1 (gingival) fibroblast cells. As to conditions: tested at up; no significant inhibitory effects; ref Cheng et al.2; cited from earlier work.
Text: as §1

Data set [7] concerns OMF (mucosal) fibroblast cells. As to conditions: tested at up to 10 mol/L; no significant inhibitory effects; ref Cheng et al.2; cited from earlier work.
Text: as §1

The subject of data set [8] is A549 human lung cancer cells. The data set can be described thus: MTT cytotoxicity assay on A549 cells. As to conditions: for Factor by which metallation with Cu^2+ increases efficacy, A549: from average IC50 values, apo vs Cu^2+-bound. It is filed as cell-based. (In general: Tetrazolium dyes change colour on reduction, which living cells bring about.)
In data set [9] the test system is normal MRC-5 (lung) fibroblast cells. The data set can be described thus: Cytotoxicity assay on normal MRC-5 fibroblasts. The data set is classed as cell-based. The settings on record: 95% confidence interval in parentheses; for apo-P1 given as 50% inhibition at. The text has this:
A549 human lung cancer cells were obtained from ATCC (ATCC CCL-185) and were maintained in Dulbecco’s Modified Eagle’s Medium (DMEM-F12, Lonza, catalog no. 12-719F) supplemented with 10% heat inactivated FBS and 1% Penn-Step. The HT1080 and MRC-5 cells were purchased from ATCC (catalog no. CCL-121 and CCL-171, respectively) and grown in Eagle’s Minimum Essential Medium (ATCC, catalog no. 30-2003TM) that was supplemented with FBS (ATCC, catalog no. 30-2021TM) such that the medium contained 10% FBS. The MDA-MB-231 and HeLa cells were obtained from ATCC (ATCC, catalog no. HTB-26 and CCL-2, respectively) and maintained in DMEM supplemented with 10% FBS. All cell cultures were grown at 37.5 °C in a humidified 5% CO2 atmosphere.
The cytotoxicity assays followed well established procedure, with the details given in the Supplementary Information. The assays were performed in triplicates using 96 well plates Cell viability was calculated using the equation: % viability = [(AT-AB)/(AC-AB)] × 100, where AT is the absorbance of the treatment well, AB is the average background absorbance measured from three wells containing only media, and AC is the absorbance of the […] control well, which received only 100 µL of media and 40 µL of MTT solution (i.e. no peptide). Averages and error bars were calculated as the mean + / − standard deviation based on triplicates. The IC50 values were obtained by fitting the percentage viability (% viability) vs Log (M) concentration of peptides to generate inhibitor dose response curve using the GraphPad Prism software. The curves were fitted using a least-squares minimization method. Individual data points on the graphs are provided as the mean (± standard deviation) from the triplicate % viability values. The GraphPad Prism algorithm converted the logIC50 into IC50 and used the standard error of the mean on the logIC50 to yield the 95% confidence interval for the logIC50 and IC50.
P1-Cu2+ and P3-Cu2+ were assayed on normal MRC-5 (lung) fibroblast cells (ATTC catalog no CCL-171), giving
given in parentheses. […]

The subject of data set [10] is HeLa (cervical) cancer cells. Nature of the data set: MTS cytotoxicity assay on HeLa cells. It is filed as cell-based. The settings on record: 24 h treatment, triplicates, 95% CI in parentheses, for P3 first data point at 0.16 µmol/L not used, holo-forms 1:1 CuCl2.

Results on five molecules are retold here after publication PMC8208971, “Copper-binding anticancer peptides from the piscidin family: an expanded mechanism that encompasses physical and chemical bilayer disruption” (Scientific Reports, 2021).

Where two headings read alike, the source gives them in different places. No end group written: not given here. Where only a bound is given, the exact number is not on record here.

For `[Cl][Cu][Cl]` [Free Cu^2+, CuCl2, reference compound], in data set [1] (CuCl2 tested at up to 30 µmol/L, HT1080 cells, same conditions as the peptides (Fig. S1B)), the “Cytotoxicity of free Cu^2+” value was “not cytotoxic”.

One may read the IC50 as the concentration that gives 50% inhibition. As for “FFHHIFRGIVHVGKTIHRLVTG-NH2 [P1, piscidin 1]”, in data set [2], the “Peptide concentration inducing drop in bilayer resistance (EIS)” value came out at 0.2 µmol/L. Further, the “Lipid oxidation (absorbance peak at 234 nm)” value in [3] is given as “little lipid oxidation”. Besides, the “Factor by which metallation with Cu^2+ increases efficacy, MDA-MB-231” value in data set [4] (from average IC50 values, apo vs Cu^2+-bound, given as 'up to') was “≈ 2 fold”. For the same molecule, the “Inhibition of MRC-5 cells” value in [5] is on record as ~ 45%. The “Survival, HGF-1” value in data set [6] is on record as more than 90%. Besides, the “Survival, OMF” value in data set [7] is more than 90%. Besides, the “Factor by which metallation with Cu^2+ increases efficacy, A549” value in data set [8] is listed as “≈ 2 fold”. The IC50 in [9] stood at 8.56 µM.

On to FFHHIFRGIVHVGKTIHRLVTG-NH2 [P1-Cu^2+], for which the concentration for half-maximal inhibition (IC50) in data set [1] (MTS, 24 h treatment, triplicates, 95% confidence interval in parentheses, holo-forms metallated 1:1 with CuCl2, read-out: IC50, HT1080) was found to be 5.31 µM; in data set [10], 2170 nM; in data set [8] (MTT, 24 h treatment, triplicates, 95% CI in parentheses, holo-forms 1:1 CuCl2, read-out: IC50, A549), 2150 nM; in data set [9], 5.97 µM.

In the case of “FIHHIFRGIVHAGRSIGRFLTG-NH2 [P3, piscidin 3]”, the “Peptide concentration inducing drop in bilayer resistance (EIS)” value in data set [2] amounted to 0.5 µmol/L. The IC50 in data set [1] (24 h) came to 26 µM; in [4], 17.5 µM; in [8] (24 h), 21600 nM. In addition, the “Factor by which metallation with Cu^2+ increases efficacy, HT1080” value in data set [1] (from average IC50 values, apo vs Cu^2+-bound) was “≈ 5 fold”. In [3], the “Lipid oxidation (absorbance peak at 234 nm)” value is “little lipid oxidation”. Besides, the “Factor by which metallation with Cu^2+ increases efficacy, A549” value in [8] is given as “≈ 7 fold”.

For FIHHIFRGIVHAGRSIGRFLTG-NH2 [P3-Cu^2+], the IC50 in data set [1] (24 h) was found to be 5.52 µM; in data set [4], 5.25 µM; in data set [8] (24 h) it was 2990 nM; in data set [9] it was 8.62 µM.
